Test results: patent US11970494B2, “6-heteroaryloxy benzimidazoles and azabenzimidazoles as JAK2 inhibitors” (Ajax Therapeutics, Inc., priority 2021, dated 2024)
Like-named read-outs stand apart in the source and are kept apart here.

Experiments:
[1] = target: T1, JAK2 (JH1 domain-catalytic, Y1007F,Y1008F) kinase (Homo sapiens, UniProt O60674, Y1007F/Y1008F); experiment: JAK2 Binding Assay (JAK2 JH1 Domain Binding Assay); conditions: JAK2 JH1 domain binding, qPCR detection; read-out: JAK2 Kd
T1 construct: made in house; host or cells: transiently transfected HEK293 cells

[2] = Hepatocyte Stability Assay, rat hepatocytes; assay type: in vitro ADME; conditions: cryopreserved hepatocytes, read-out: Rat Heps CLint
Method: 10 mM stock solutions of test compound and positive control are prepared in DMSO. Stock solutions are diluted to 100 μM by combining 198 μL of 50% acetonitrile/50% water and 2 μL of 10 mM stock solution. Verapamil is used as positive control in the assay. Vials of cryopreserved hepatocytes are thawed in a 37° C. water bath with gently shaking. The contents are poured into the 50 mL thawing medium conical tube. Vials are centrifuged at 100 g for 10 minutes at room temperature. Thawing medium is aspirated and hepatocytes are re-suspended with serum-free incubation medium to yield ˜1.5×10^6 cells/mL. Cell viability and density are counted using a Trypan Blue exclusion, and then cells are diluted with serum-free incubation medium to a working cell density of 0.5×10^6 viable cells/mL. A portion of the hepatocytes at 0.5×10^6 viable cells/mL are boiled for 5 min prior to adding to the plate as negative control to eliminate the enzymatic activity so that little or no substrate turnover should be observed. Aliquots of 198 μL hepatocytes are dispensed into each well of a 96-well non-coated plate. The plate is placed in the incubator for approximately 10 minutes. Aliquots of 2 μL of the 100 μM test compound and 2 μL positive control are added into respective wells of a non-coated 96-well plate to start the reaction. The final concentration of test compound is 1 μM. This assay is performed in duplicate. The plate is incubated in the incubator for the designed time points. 25 μL of contents are transferred and mixed with 6 volumes (150 μL) of cold acetonitrile with internal standard (100 nM alprazolam, 200 nM labetalol, 200 nM caffeine and 200 nM diclofenac) to terminate the reaction at time points of 0, 15, 30, 60, 90 and 120 minutes. Samples are centrifuged for 25 minutes at 3,220 g and aliquots of 150 μL of the supernatants are used for LC-MS/MS analysis.

[3] = tested on: JAK2-mediated pSTAT5 signaling in constitutively active essential thrombocytopenia cells carrying the V617F mutation; experiment: SET2-pSTAT5 Cellular Assay; assay type: cell-based; conditions: Homo sapiens
Method: This assay measures inhibition of JAK2-mediated pSTAT5 signaling in constitutively active essential thrombocytopenia cells carrying the V617F mutation. Cells are harvested from a flask into cell culture medium, and the number of cells is counted. The cells are diluted with culture medium and 100 μL of cell suspension (50000/well) is added into each well of a 96-well cell culture plate. A solution of test compound is added to the assay plate. The plates are covered with a lid and placed in a 37° C. 5% CO2 incubator for 4 hours. After 4 hours, the cells are spun, and the cell pellets are re-suspended with 100 μL cold PBS. Then, the cells are spun again at 4° C. and 4000 rpm for 5 min. PBS is aspirated, and 25 μL lysis buffer (with protease and phosphatase inhibitor cocktail) is added to each cell pellet. The cell lysate is shaken at 4° C. for 20 min to fully lyse the cells. The cell lysate is spun at 4° C. and 4000 rpm for 15 min, and then the supernatant is transferred into a new plate and stored at −80° C. Meso-scale discovery (MSD) is used to analyze plates as follows: a standard MSD plate is coated with capture antibody in PBS (40 μL/well) and is incubated at 4° C. overnight with shaking. The MSD plate is washed three times with 150 μL/well of 1×MSD Wash Buffer (Tris-buffered saline with 0.1% Tween® 20 detergent, TBST). The MSD plates are then blocked with 150 μL of blocking buffer (5% BSA in TBST) and shaken for 1 h at room temperature and 600 rpm. The MSD plate is washed three times with 150 μL/well of 1×MSD Wash Buffer (TBST). Sample lysates are then added to MSD plates (25 μL/well) and shaken for 1 h at room temperature and 600 rpm. The MSD plate is washed three times with 150 μL/well of 1×MSD Wash Buffer (TBST). Detection antibody (prepared in Antibody Detection buffer, 1% BSA in 1×TBST) is then added to the MSD plates, and they are shaken for 1 h at room temperature and 600 rpm. The MSD plate is washed three times with 150 μL/well of 1×MSD Wash Buffer (TBST). A secondary detection antibody (prepared in Antibody Detection buffer, 1% BSA in 1×TBST) is then added to the MSD plates, and they are shaken for 1 h at room temperature and 600 rpm. The MSD plate is washed three times with 150 μL/well of 1×MSD Wash Buffer (TBST). MSD reading buffer (1×) is added to the plates (150 μL/well), and they are diluted from 4× with water. The plates are imaged using an MSD imaging instrument according to the manufacturer's instructions.

[4] = SET-2, SET2 cells, pSTAT5, 4 hours, MSD, read-out: IC50

T1 sequence (O60674 849-1124 Y1007F/Y1008F limits assumed): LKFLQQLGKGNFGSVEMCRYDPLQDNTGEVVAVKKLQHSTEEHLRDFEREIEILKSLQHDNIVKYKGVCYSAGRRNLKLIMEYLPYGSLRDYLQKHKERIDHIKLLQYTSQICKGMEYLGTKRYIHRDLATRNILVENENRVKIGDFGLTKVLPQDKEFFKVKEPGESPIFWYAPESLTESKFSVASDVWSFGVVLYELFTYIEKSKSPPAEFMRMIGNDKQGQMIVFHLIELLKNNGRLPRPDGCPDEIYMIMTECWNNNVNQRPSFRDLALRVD

Compound `COC(=O)Nc1cc(Oc2cnc3nc(Nc4cc(C(F)(F)F)cn(C)c4=O)n(C)c3c2C#N)ccn1` [Example I-3, Methyl (4-((7-cyano-1-methyl-2-((1-methyl-2-oxo-5-(trifluoromethyl)-1,2-dihydropyridin-3-yl)amino)-1H-imidazo[4,5-b]pyridin-6-yl)oxy)pyridin-2-yl)carbamate] has a Kd [1] of under 10 nM, a CLint scaled at 1 μM [2] of under 17 mL/min/kg and an IC50 ([3]; SET-2, 4 h) of under 125 nM.

`CN(C)C(=O)Nc1cc(Oc2cnc3nc(Nc4cc(C(F)(F)F)cn(C)c4=O)n(C)c3c2C#N)ccn1` [Example I-4, 3-(4-((7-cyano-1-methyl-2-((1-methyl-2-oxo-5-(trifluoromethyl)-1,2-dihydropyridin-3-yl)amino)-1H-imidazo[4,5-b]pyridin-6-yl)oxy)pyridin-2-yl)-1,1-dimethylurea] gave a Kd [1] of under 10 nM, a CLint scaled at 1 μM [2] of 17 to 35 mL/min/kg and an IC50 ([3]; SET-2, 4 h) of under 125 nM.

`Cn1cc(C(F)(F)F)cc(Nc2nc3ncc(Oc4ccnc(NC(=O)N5CCC5)c4)c(C#N)c3n2C)c1=O` [Example I-7, N-(4-((7-cyano-1-methyl-2-((1-methyl-2-oxo-5-(trifluoromethyl)-1,2-dihydropyridin-3-yl)amino)-1H-imidazo[4,5-b]pyridin-6-yl)oxy)pyridin-2-yl)azetidine-1-carboxamide] gave a Kd [1] of under 10 nM, a CLint scaled at 1 μM [2] of 17 to 35 mL/min/kg and an IC50 [3, 4] of under 125 nM.

Compound `CO[C@H]1CCN(C(=O)Nc2cc(Oc3cnc4nc(Nc5cc(C(F)(F)F)cn(C)c5=O)n(C)c4c3C#N)ccn2)C1` [Example I-14, (S)-N-(4-((7-cyano-1-methyl-2-((1-methyl-2-oxo-5-(trifluoromethyl)-1,2-dihydropyridin-3-yl)amino)-1H-imidazo[4,5-b]pyridin-6-yl)oxy)pyridin-2-yl)-3-methoxypyrrolidine-1-carboxamide] has a Kd [1] of under 10 nM, a CLint scaled at 1 μM [2] of under 17 mL/min/kg and an IC50 [3, 4] of under 125 nM.

`Cn1cc(C(F)(F)F)cc(Nc2nc3ncc(Oc4ccnc(NC(=O)OCCN5CCOCC5)c4)c(C#N)c3n2C)c1=O` [Example I-15, 2-Morpholinoethyl(4-((7-cyano-1-methyl-2-((1-methyl-2-oxo-5-(trifluoromethyl)-1,2-dihydropyridin-3-yl)amino)-1H-imidazo[4,5-b]pyridin-6-yl)oxy)pyridin-2-yl)carbamate] showed a Kd [1] of under 10 nM, a CLint scaled at 1 μM [2] of under 17 mL/min/kg and an IC50 [3, 4] of under 125 nM.

For `Cn1cc(C(F)(F)F)cc(Nc2nc3ncc(Oc4ccnc(NC(=O)O[C@@H]5CCOC5)c4)c(C#N)c3n2C)c1=O` [Example I-18, (R)-Tetrahydrofuran-3-yl(4-((7-cyano-1-methyl-2-((1-methyl-2-oxo-5-(trifluoromethyl)-1,2-dihydropyridin-3-yl)amino)-1H-imidazo[4,5-b]pyridin-6-yl)oxy)pyridin-2-yl)carbamate], the Kd [1] was under 10 nM, the CLint scaled at 1 μM [2] was 17 to 35 mL/min/kg and the IC50 [3, 4] was under 125 nM.

Work on `COC1CN(C(=O)Nc2cc(Oc3cnc4nc(Nc5cc6n(n5)CCCC6(F)F)n(C)c4c3C#N)ccn2)C1` [Example I-26, N-(4-((7-cyano-2-((4,4-difluoro-4,5,6,7-tetrahydropyrazolo[1,5-a]pyridin-2-yl)amino)-1-methyl-1H-imidazo[4,5-b]pyridin-6-yl)oxy)pyridin-2-yl)-3-methoxyazetidine-1-carboxamide] yielded a Kd [1] of under 10 nM, a CLint scaled at 1 μM [2] of under 17 mL/min/kg and an IC50 [3, 4] of 200 to 1000 nM.

`Cn1c(Nc2cc3n(n2)CCOC3(C)C)nc2ncc(Oc3ccnc(NC(=O)O[C@@H]4CCOC4)c3)c(C#N)c21` [Example I-48, (R)-Tetrahydrofuran-3-yl(4-((7-cyano-2-((4,4-dimethyl-6,7-dihydro-4H-pyrazolo[5,1-c][1,4]oxazin-2-yl)amino)-1-methyl-1H-imidazo[4,5-b]pyridin-6-yl)oxy)pyridin-2-yl)carbamate] gave a Kd [1] of under 10 nM and an IC50 [3, 4] of 1000 to 5000 nM.

In the case of `CN(C)C(=O)Nc1cc(Oc2cnc3nc(Nc4cc5n(n4)CCC54CCC4)n(C)c3c2C#N)ccn1` [Example I-56, 3-(4-((7-cyano-2-((5′,6′-dihydrospiro[cyclobutane-1,4′-pyrrolo[1,2-b]pyrazol]-2′-yl)amino)-1-methyl-1H-imidazo[4,5-b]pyridin-6-yl)oxy)pyridin-2-yl)-1,1-dimethylurea], the Kd [1] is reported as under 10 nM, the CLint scaled at 1 μM [2] is reported as 17 to 35 mL/min/kg and the IC50 ([3]; SET-2, 4 h) is reported as 125 to 200 nM.

In the case of `COC(=O)Nc1cc(Oc2cnc3nc(Nc4cc5n(n4)CCC54CCC4)n(C)c3c2C#N)ccn1` [Example I-57, methyl(4-((7-cyano-2-((5′,6′-dihydrospiro[cyclobutane-1,4′-pyrrolo[1,2-b]pyrazol]-2′-yl)amino)-1-methyl-1H-imidazo[4,5-b]pyridin-6-yl)oxy)pyridin-2-yl)carbamate], the Kd [1] is reported as under 10 nM, the CLint scaled at 1 μM [2] is reported as 35 to 45 mL/min/kg and the IC50 ([3]; SET-2, 4 h) is reported as 125 to 200 nM.

In the case of `CO[C@@H]1CCN(C(=O)Nc2cc(Oc3cnc4nc(Nc5cc6n(n5)CCC65CCC5)n(C)c4c3C#N)ccn2)C1` [Example I-60, (R)-N-(4-((7-cyano-2-((5′,6′-dihydrospiro[cyclobutane-1,4′-pyrrolo[1,2-b]pyrazol]-2′-yl)amino)-1-methyl-1H-imidazo[4,5-b]pyridin-6-yl)oxy)pyridin-2-yl)-3-methoxypyrrolidine-1-carboxamide], the Kd [1] is reported as under 10 nM, the CLint scaled at 1 μM [2] is reported as 17 to 35 mL/min/kg and the IC50 [3, 4] is reported as under 125 nM.

For `COC1CN(C(=O)Nc2cc(Oc3cnc4nc(Nc5cc6n(n5)CCC65CCC5)n(C)c4c3C#N)ccn2)C1` [Example I-61, N-(4-((7-cyano-2-((5′,6′-dihydrospiro[cyclobutane-1,4′-pyrrolo[1,2-b]pyrazol]-2′-yl)amino)-1-methyl-1H-imidazo[4,5-b]pyridin-6-yl)oxy)pyridin-2-yl)-3-methoxyazetidine carboxamide], the Kd [1] was under 10 nM, the CLint scaled at 1 μM [2] was 35 to 45 mL/min/kg and the IC50 [3, 4] was under 125 nM.

Compound `COCCOC(=O)Nc1cc(Oc2cnc3nc(Nc4cc5n(n4)CCC54CCC4)n(C)c3c2C#N)ccn1` [Example I-62, 2-methoxyethyl(4-((7-cyano-2-((5′,6′-dihydrospiro[cyclobutane-1,4′-pyrrolo[1,2-b]pyrazol]-2′-yl)amino)-1-methyl-1H-imidazo[4,5-b]pyridin-6-yl)oxy)pyridin-2-yl)carbamate] has a Kd [1] of under 10 nM, a CLint scaled at 1 μM [2] of 17 to 35 mL/min/kg and an IC50 [3, 4] of under 125 nM.

With `COCC(=O)Nc1cc(Oc2cnc3nc(Nc4cc(C(F)(F)F)cn(C)c4=O)n(C)c3c2Cl)ccn1` [Example I-75, N-(4-((7-chloro-1-methyl-2-((1-methyl-2-oxo-5-(trifluoromethyl)-1,2-dihydropyridin-3-yl)amino)-1H-imidazo[4,5-b]pyridin-6-yl)oxy)pyridin-2-yl)-2-methoxyacetamide] the Kd [1] was under 10 nM, the CLint scaled at 1 μM [2] was under 17 mL/min/kg and the IC50 [3, 4] was under 125 nM.

For `COCC(=O)Nc1cc(Oc2cnc3nc(Nc4cc(C(F)(F)F)cn(C)c4=O)n(C)c3c2C#N)ccn1` [Example I-79, N-(4-((7-cyano-1-methyl-2-((1-methyl-2-oxo-5-(trifluoromethyl)-1,2-dihydropyridin-3-yl)amino)-1H-imidazo[4,5-b]pyridin-6-yl)oxy)pyridin-2-yl)-2-methoxyacetamide], the Kd [1] was under 10 nM, the CLint scaled at 1 μM [2] was 17 to 35 mL/min/kg and the IC50 [3, 4] was under 125 nM.
